Measured values reported in the supplement of paper PMC13207355.
Structures can show the parent of a compound that is named as a salt.

What was measured:
Details in all cases: exposure time: 72 h
E31 [1] = patient-derived glioblastoma stem cells of proneural subtype; experiment: phenotypic distance (Euclidean, principal components) from DMSO controls (arbitrary units); higher = stronger morphological change
E28 [2] = patient-derived glioblastoma stem cells of classical subtype; experiment: as above
FT3469 [3] = normal neural stem cell line; experiment: as above
E57 [4] = patient-derived glioblastoma stem cells of mesenchymal subtype; experiment: as above
E21 [5] = patient-derived glioblastoma stem cells of mesenchymal subtype; experiment: as above
E13 [6] = patient-derived glioblastoma stem cells of classical subtype; experiment: as above
E34 [7] = patient-derived glioblastoma stem cells of proneural subtype; experiment: as above
E31 [8] = experiment: surviving fraction (nuclei count normalised to DMSO); higher = more cells surviving (less toxic)
E28 [9] = experiment: as above
FT3469 [10] = experiment: as above
E57 [11] = experiment: as above
E21 [12] = experiment: as above
E13 [13] = experiment: as above
E34 [14] = experiment: as above
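For phenotypic distance (Euclidean, principal components) from DMSO controls in this document: cell Painting imaging in 384-well plates, CellProfiler features reduced to at least 20 principal components, Euclidean distance versus same-plate DMSO vehicle wells (0.1% v/v), median over six images per well.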
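For surviving fraction (nuclei count normalised to DMSO) in this document: nuclei counted by high-content imaging of Hoechst-stained cells in laminin-coated 384-well plates, relative to 0.1% DMSO vehicle wells, with staurosporine as cell-death control.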

CCN(CC)CCCC(C)Nc1c2ccc(Cl)cc2nc2ccc(OC)cc12 (stereo unspecified) [Quinacrine dihydrochloride hydrate]
phenotypic distance (E31 [1]; 4.11523 nM): 1.19
phenotypic distance (E31 [1]; 12.34567901 nM): 0.694
phenotypic distance (E31 [1]; 37.037 nM): 0.513
phenotypic distance (E31 [1]; 111.1111111 nM): 0.784
phenotypic distance (E31 [1]; 333.333 nM): 0.524
phenotypic distance (E31 [1]; 1000 nM): 0.913
phenotypic distance (E31 [1]; 3000 nM): 2.12
phenotypic distance (E28 [2]; 4.11523 nM): 0.665
phenotypic distance (E28 [2]; 12.34567901 nM): 0.451
phenotypic distance (E28 [2]; 37.037 nM): 0.457
phenotypic distance (E28 [2]; 111.1111111 nM): 0.704
phenotypic distance (E28 [2]; 333.333 nM): 0.722
phenotypic distance (E28 [2]; 1000 nM): 0.455
phenotypic distance (E28 [2]; 3000 nM): 1.98
phenotypic distance (FT3469 [3]; 4.11523 nM): 0.574
phenotypic distance (FT3469 [3]; 12.34567901 nM): 0.546
phenotypic distance (FT3469 [3]; 37.037 nM): 0.759
phenotypic distance (FT3469 [3]; 111.1111111 nM): 0.562
phenotypic distance (FT3469 [3]; 333.333 nM): 0.547
phenotypic distance (FT3469 [3]; 1000 nM): 0.651
phenotypic distance (FT3469 [3]; 3000 nM): 2.59
phenotypic distance (E57 [4]; 4.11523 nM): 1.09
phenotypic distance (E57 [4]; 12.34567901 nM): 1.14
phenotypic distance (E57 [4]; 37.037 nM): 0.424
phenotypic distance (E57 [4]; 111.1111111 nM): 0.923
phenotypic distance (E57 [4]; 333.333 nM): 0.838
phenotypic distance (E57 [4]; 1000 nM): 1.18
phenotypic distance (E57 [4]; 3000 nM): 2.11
phenotypic distance (E21 [5]; 4.11523 nM): 0.539
phenotypic distance (E21 [5]; 12.34567901 nM): 0.4
phenotypic distance (E21 [5]; 37.037 nM): 0.451
phenotypic distance (E21 [5]; 111.1111111 nM): 0.853
phenotypic distance (E21 [5]; 333.333 nM): 0.649
phenotypic distance (E21 [5]; 1000 nM): 1.12
phenotypic distance (E21 [5]; 3000 nM): 1.66
phenotypic distance (E13 [6]; 4.11523 nM): 0.636
phenotypic distance (E13 [6]; 12.34567901 nM): 0.492
phenotypic distance (E13 [6]; 37.037 nM): 0.777
phenotypic distance (E13 [6]; 111.1111111 nM): 0.595
phenotypic distance (E13 [6]; 333.333 nM): 2.11
phenotypic distance (E13 [6]; 1000 nM): 3.45
phenotypic distance (E13 [6]; 3000 nM): 1.42
phenotypic distance (E34 [7]; 4.11523 nM): 0.829
phenotypic distance (E34 [7]; 12.34567901 nM): 1.53
phenotypic distance (E34 [7]; 37.037 nM): 0.456
phenotypic distance (E34 [7]; 111.1111111 nM): 0.849
phenotypic distance (E34 [7]; 333.333 nM): 1.06
phenotypic distance (E34 [7]; 1000 nM): 1.21
phenotypic distance (E34 [7]; 3000 nM): 0.812
surviving fraction (E31 [8]; 4.11523 nM): 0.883
surviving fraction (E31 [8]; 12.34567901 nM): 1.02
surviving fraction (E31 [8]; 37.037 nM): 1.06
surviving fraction (E31 [8]; 111.1111111 nM): 1.14
surviving fraction (E31 [8]; 333.333 nM): 0.914
surviving fraction (E31 [8]; 1000 nM): 1.16
surviving fraction (E31 [8]; 3000 nM): 0.516
surviving fraction (E28 [9]; 4.11523 nM): 1.09
surviving fraction (E28 [9]; 12.34567901 nM): 1.03
surviving fraction (E28 [9]; 37.037 nM): 0.987
surviving fraction (E28 [9]; 111.1111111 nM): 1.11
surviving fraction (E28 [9]; 333.333 nM): 1.05
surviving fraction (E28 [9]; 1000 nM): 1.13
surviving fraction (E28 [9]; 3000 nM): 0.69
surviving fraction (FT3469 [10]; 4.11523 nM): 1.04
surviving fraction (FT3469 [10]; 12.34567901 nM): 1.01
surviving fraction (FT3469 [10]; 37.037 nM): 0.948
surviving fraction (FT3469 [10]; 111.1111111 nM): 1.1
surviving fraction (FT3469 [10]; 333.333 nM): 1.02
surviving fraction (FT3469 [10]; 1000 nM): 1.1
surviving fraction (FT3469 [10]; 3000 nM): 0.826
surviving fraction (E57 [11]; 4.11523 nM): 0.945
surviving fraction (E57 [11]; 12.34567901 nM): 1.05
surviving fraction (E57 [11]; 37.037 nM): 0.97
surviving fraction (E57 [11]; 111.1111111 nM): 1.13
surviving fraction (E57 [11]; 333.333 nM): 1.04
surviving fraction (E57 [11]; 1000 nM): 1.1
surviving fraction (E57 [11]; 3000 nM): 1.04
surviving fraction (E21 [12]; 4.11523 nM): 0.908
surviving fraction (E21 [12]; 12.34567901 nM): 0.974
surviving fraction (E21 [12]; 37.037 nM): 1
surviving fraction (E21 [12]; 111.1111111 nM): 0.955
surviving fraction (E21 [12]; 333.333 nM): 1.05
surviving fraction (E21 [12]; 1000 nM): 1.09
surviving fraction (E21 [12]; 3000 nM): 0.71
surviving fraction (E13 [13]; 4.11523 nM): 0.934
surviving fraction (E13 [13]; 12.34567901 nM): 0.901
surviving fraction (E13 [13]; 37.037 nM): 0.789
surviving fraction (E13 [13]; 111.1111111 nM): 0.985
surviving fraction (E13 [13]; 333.333 nM): 0.993
surviving fraction (E13 [13]; 1000 nM): 0.911
surviving fraction (E13 [13]; 3000 nM): 0.709
surviving fraction (E34 [14]; 4.11523 nM): 0.882
surviving fraction (E34 [14]; 12.34567901 nM): 0.943
surviving fraction (E34 [14]; 37.037 nM): 0.902
surviving fraction (E34 [14]; 111.1111111 nM): 0.99
surviving fraction (E34 [14]; 333.333 nM): 1.21
surviving fraction (E34 [14]; 1000 nM): 0.998
surviving fraction (E34 [14]; 3000 nM): 0.806

C#C[C@]1(O)CC[C@H]2[C@@H]3CCc4cc(OC5CCCC5)ccc4[C@H]3CC[C@@]21C [Quinestrol]
phenotypic distance (E31 [1]; 4.1 nM): 0.447
phenotypic distance (E31 [1]; 12.3 nM): 0.67
phenotypic distance (E31 [1]; 37 nM): 1.03
phenotypic distance (E31 [1]; 111.1 nM): 0.71
phenotypic distance (E31 [1]; 333.3 nM): 0.698
phenotypic distance (E31 [1]; 1000 nM): 0.864
phenotypic distance (E31 [1]; 3000 nM): 3.81
phenotypic distance (E28 [2]; 4.1 nM): 0.438
phenotypic distance (E28 [2]; 12.3 nM): 2.42
phenotypic distance (E28 [2]; 37 nM): 0.788
phenotypic distance (E28 [2]; 111.1 nM): 0.466
phenotypic distance (E28 [2]; 333.3 nM): 0.753
phenotypic distance (E28 [2]; 1000 nM): 0.514
phenotypic distance (E28 [2]; 3000 nM): 0.675
phenotypic distance (FT3469 [3]; 4.1 nM): 0.479
phenotypic distance (FT3469 [3]; 12.3 nM): 0.739
phenotypic distance (FT3469 [3]; 37 nM): 0.643
phenotypic distance (FT3469 [3]; 111.1 nM): 1.01
phenotypic distance (FT3469 [3]; 333.3 nM): 0.84
phenotypic distance (FT3469 [3]; 1000 nM): 0.699
phenotypic distance (FT3469 [3]; 3000 nM): 1.58
phenotypic distance (E57 [4]; 4.1 nM): 1.71
phenotypic distance (E57 [4]; 12.3 nM): 1.01
phenotypic distance (E57 [4]; 37 nM): 0.583
phenotypic distance (E57 [4]; 111.1 nM): 0.81
phenotypic distance (E57 [4]; 333.3 nM): 0.452
phenotypic distance (E57 [4]; 1000 nM): 0.7
phenotypic distance (E57 [4]; 3000 nM): 3.72
phenotypic distance (E21 [5]; 4.1 nM): 0.608
phenotypic distance (E21 [5]; 12.3 nM): 0.48
phenotypic distance (E21 [5]; 37 nM): 0.746
phenotypic distance (E21 [5]; 111.1 nM): 0.53
phenotypic distance (E21 [5]; 333.3 nM): 0.819
phenotypic distance (E21 [5]; 1000 nM): 2.32
phenotypic distance (E21 [5]; 3000 nM): 6.37
phenotypic distance (E13 [6]; 4.1 nM): 0.478
phenotypic distance (E13 [6]; 12.3 nM): 0.526
phenotypic distance (E13 [6]; 37 nM): 0.837
phenotypic distance (E13 [6]; 111.1 nM): 0.697
phenotypic distance (E13 [6]; 333.3 nM): 0.689
phenotypic distance (E13 [6]; 1000 nM): 1.18
phenotypic distance (E13 [6]; 3000 nM): 7.05
phenotypic distance (E34 [7]; 4.1 nM): 0.544
phenotypic distance (E34 [7]; 12.3 nM): 0.554
phenotypic distance (E34 [7]; 37 nM): 0.597
phenotypic distance (E34 [7]; 111.1 nM): 0.985
phenotypic distance (E34 [7]; 333.3 nM): 1.09
phenotypic distance (E34 [7]; 1000 nM): 0.707
phenotypic distance (E34 [7]; 3000 nM): 1.82
surviving fraction (E31 [8]; 4.1 nM): 1.02
surviving fraction (E31 [8]; 12.3 nM): 0.942
surviving fraction (E31 [8]; 37 nM): 1.09
surviving fraction (E31 [8]; 111.1 nM): 1.07
surviving fraction (E31 [8]; 333.3 nM): 0.981
surviving fraction (E31 [8]; 1000 nM): 1.01
surviving fraction (E31 [8]; 3000 nM): 0.848
surviving fraction (E28 [9]; 4.1 nM): 1.13
surviving fraction (E28 [9]; 12.3 nM): 1.04
surviving fraction (E28 [9]; 37 nM): 1.08
surviving fraction (E28 [9]; 111.1 nM): 1.1
surviving fraction (E28 [9]; 333.3 nM): 1.04
surviving fraction (E28 [9]; 1000 nM): 1.19
surviving fraction (E28 [9]; 3000 nM): 1.01
surviving fraction (FT3469 [10]; 4.1 nM): 0.963
surviving fraction (FT3469 [10]; 12.3 nM): 1.03
surviving fraction (FT3469 [10]; 37 nM): 1.11
surviving fraction (FT3469 [10]; 111.1 nM): 1.09
surviving fraction (FT3469 [10]; 333.3 nM): 1.2
surviving fraction (FT3469 [10]; 1000 nM): 0.888
surviving fraction (FT3469 [10]; 3000 nM): 0.938
surviving fraction (E57 [11]; 4.1 nM): 1.05
surviving fraction (E57 [11]; 12.3 nM): 1.05
surviving fraction (E57 [11]; 37 nM): 1.01
surviving fraction (E57 [11]; 111.1 nM): 1.06
surviving fraction (E57 [11]; 333.3 nM): 1.01
surviving fraction (E57 [11]; 1000 nM): 1.03
surviving fraction (E57 [11]; 3000 nM): 0.693
surviving fraction (E21 [12]; 4.1 nM): 1.01
surviving fraction (E21 [12]; 12.3 nM): 0.938
surviving fraction (E21 [12]; 37 nM): 1.05
surviving fraction (E21 [12]; 111.1 nM): 0.982
surviving fraction (E21 [12]; 333.3 nM): 1.02
surviving fraction (E21 [12]; 1000 nM): 0.873
surviving fraction (E21 [12]; 3000 nM): 0.617
surviving fraction (E13 [13]; 4.1 nM): 1.06
surviving fraction (E13 [13]; 12.3 nM): 1.04
surviving fraction (E13 [13]; 37 nM): 1.11
surviving fraction (E13 [13]; 111.1 nM): 1.07
surviving fraction (E13 [13]; 333.3 nM): 1.02
surviving fraction (E13 [13]; 1000 nM): 0.946
surviving fraction (E13 [13]; 3000 nM): 0.347
surviving fraction (E34 [14]; 4.1 nM): 1.01
surviving fraction (E34 [14]; 12.3 nM): 1.07
surviving fraction (E34 [14]; 37 nM): 1.01
surviving fraction (E34 [14]; 111.1 nM): 1.07
surviving fraction (E34 [14]; 333.3 nM): 1.15
surviving fraction (E34 [14]; 1000 nM): 0.967
surviving fraction (E34 [14]; 3000 nM): 0.918
